{"source": "patent EP3300730A1", "about": "“THE MEDICAL USE OF 5,7-DIHYDROXY-3-(4-HYDROXYPHENYL)-4H-1-BENZOPIRAN-4-ONE IN THE THERAPY OF HUNTINGTON DISEASE AND PHARMACEUTICALLY ACCEPTABLE FORM OF THE DRUG” (Uniwersytet Gdanski, priority 2016, dated 2018)", "key": {"huntingtin aggregates": {"system": "huntingtin aggregates", "test": "Fluorescence microscopy of huntingtin aggregates in transfected cells", "type": "cell-based, human", "settings": "HEK293 transfected with pEGFP-Q74; genistein 30, 60 and 100 µM; 48 h; vs DMSO control (Fig. 1)", "procedure": "(§1) • Fig. 1. Number and average size of huntingtin aggregates in human embryonic kidney cells transfected with plasmid pEGFP-Q74 (bearing the 1st exon of the HTT gene with 74 CAG repeats), treated with genistein (30, 60 and 100 µM) or DMSO (control cells), in a volume equal to that of genistein, for 48 h. Error bars indicate standard deviation. Statistical analysis was performed with the t-Student test. The differences were considered significant at p<0.05. • Fig. 2. Relative level of mutated huntingtin in human embryonic kidney cells transfected with plasmid pEGFP-Q74 (bearing the 1st exon of the HTT gene with 74 CAG repeats), treated with genistein (30, 60 and 100 µM) or DMSO (control cells), in a volume equal to that of genistein, for 96 h. Actin was used as an internal control. • Fig. 3. […] Intensity of bands was estimated using the Quantity One software. • Fig. 5. Number (calculated per one cell) and volume of acidic organelles in human embryonic kidney cells transfected with plasmid pEGFP-Q74 (bearing the 1st exon of the HTT gene with 74 CAG repeats), treated with genistein (30, 60 and 100 µM) or DMSO (control cells), in a volume equal to that of genistein, for 96 h. […] The co-localization Pearson factor was calculated by using the ImageJ software. […]"}, "mutated huntingtin [1]": {"system": "mutated huntingtin", "test": "Western blotting of the mutated huntingtin level", "type": "cell-based, human", "settings": "HEK293 transfected with pEGFP-Q74; genistein 30, 60 and 100 µM; 96 h; actin internal control (Fig. 2)", "procedure": "as §1"}, "[2]": {"system": "human embryonic kidney cells (HEK293) transfected with plasmid pEGFP-Q74", "test": "MTT viability test of cells transfected with pEGFP-Q74", "type": "cell-based", "settings": "genistein 30, 60 and 100 µM, 48 h, MTT test (Fig. 3)", "procedure": "as §1"}, "LC3-II protein": {"system": "LC3-II protein", "test": "Immunodetection (Western blotting) of the autophagy marker LC3-II", "type": "cell-based, human", "settings": "96 h", "procedure": "as §1"}, "acidic organelles": {"system": "acidic organelles", "test": "LysoTracker Red staining of acidic organelles (lysosomes), ImageJ analysis", "type": "cell-based, human", "settings": "96 h, HEK293 transfected with pEGFP-Q74, LysoTracker Red (Fig. 5)", "text": "• Fig. 1. […] Error bars indicate standard deviation. […] Error bars indicate standard deviation. […] Error bars indicate standard deviation."}, "[3]": {"system": "aggregates of mutated huntingtin with lysosomes", "test": "Co-localization of mutated huntingtin aggregates with lysosomes (fluorescence microscopy, Pearson coefficient)", "type": "cell-based, human", "settings": "100 µM genistein; 96 h; HEK293 transfected with pEGFP-Q74; vs DMSO control (Fig. 6)", "procedure": "as §1, with “2.” for “2. Relative level of mutated huntingtin in human embryonic kidney cells transfected with plasmid pEGFP-Q74 (bearing the 1st exon of the HTT gene with 74 CAG repeats), treated with genistein (30, 60 and 100 µM) or DMSO (control cells), in a volume equal to that of genistein, for 96 h. Actin was used as an internal control. • Fig. 3.”\nIn order to test whether mutant huntingtin is transported into lysosomes for degradation, co-localization of aggregates of mutated huntingtin with lysosomes was assessed using a fluorescent microscope (Fig. 6). […]"}, "mutated huntingtin [4]": {"system": "mutated huntingtin", "test": "Western blotting of mutated huntingtin with lysosomal function inhibited by chloroquine", "type": "cell-based, human", "settings": "in the presence of 10 µM chloroquine; genistein 30, 60 and 100 µM; 96 h; HEK293 transfected with pEGFP-Q74 (Fig. 7)", "procedure": "as §1"}}, "data": [{"compound": "O=c1c(-c2ccc(O)cc2)coc2cc(O)cc(O)c12", "note": "[genistein, 5,7-dihydroxy-3-(4-hydroxyphenyl)-4H-1-benzopiran-4-one]", "values": [{"measurement": "number of mutant huntingtin aggregates in cells", "setting": "huntingtin aggregates", "result": "decrease in both size and number"}, {"measurement": "size of mutant huntingtin aggregates in cells", "setting": "huntingtin aggregates", "result": "decrease in both size and number"}, {"measurement": "level of mutant huntingtin in cells", "setting": "mutated huntingtin [1]", "result": "significantly reduces"}, {"measurement": "viability of cells", "setting": "[2]", "result": "increase in viability"}, {"measurement": "LC3-II protein amount", "setting": "LC3-II protein; HEK293 transfected with pEGFP-Q74, genistein 30, 60 and 100 µM, vs DMSO control (Fig. 4)", "result": "genistein-concentration-dependent increase"}, {"measurement": "fold induction at 100 µM", "setting": "LC3-II protein; Homo sapiens, highest genistein concentration (100 µM), HEK293 transfected with pEGFP-Q74 (Fig. 4), read-out: LC3-II protein level relative to control experiment", "result": "~4"}, {"measurement": "number of acid organelles", "setting": "acidic organelles; 30 µM genistein", "result": "increase is visible"}, {"measurement": "volume of acid organelles", "setting": "acidic organelles; 30 µM genistein", "result": "increase in the volume of acid organelles was evident"}, {"measurement": "number of acid organelles", "setting": "acidic organelles; 100 µM genistein", "result": "difference relative to the control is significant"}, {"measurement": "co-localization of aggregates of mutated huntingtin with lysosomes", "setting": "[3]", "result": "increased significantly"}, {"measurement": "level of mutated huntingtin", "setting": "mutated huntingtin [4]", "result": "did not change significantly"}]}]}
